“And” between values parts separate entries of the source, which are not always exact repeats. Equal entries are not always repeated.
Legend:
Aj (Aneiliema japonica) = assay: Example 1 field test, weed control in transplanted rice, Iri, Korea; format: in vivo; conditions: av. of 36 and 63 DAT
Text: (§1) In the field test 48 day-old seedlings (Watanabe variety) were transplanted to plots 2.5 × 6 m. seeded with the weed seeds indicated in Table 1. At 5 and 10 DAT periods, the herbicides were applied to the plants (now at the 1.2 and 2.0 leaf stage, respectively, of grass weed) at the indicated rate in kilograms per hectare (kg/ha). The weed control and rice injury results for 3 replications are reported in percentages as of the indicated times of observation. The percentages given in the "Perennials" column are based on the weight of the weeds at 63 DAT, i.e., 42 gms/3.6 m^2 for the weedy check.

Ci (Cyperus iria) = assay: as above; format: in vivo; conditions: av. of 36 and 63 DAT
Text: as §1

[1] = tested on: Mv (Monochoria vaginalis); assay: as above; format: in vivo; conditions: av. of 36 and 63 DAT
Text: as §1

[2] = tested on: Eo (Echinochloa oryzicola); assay: as above; format: in vivo; conditions: av. of 36 and 63 DAT
Text: as §1

[3] = tested on: weeds Ec, Ann. Cyp, Mv, Obw, Ea; assay: Example 5 field test, average weed control, JAAPR, Japan
Procedure: (§2) In the tests described in the tables below, the herbicides were formulated and used in granular form in conventional manner. […] The commercial herbicide used was a granular product having 5% active ingredient.
(§3) In the field tests of the herbicide of this invention with transplanted rice, the rice seedlings were grown in conventional manner, by seeding the rice in a typical seedbed of sandy loam to clay soil of the country wherein the test was conducted. For laboratory and greenhouse work the seedlings were obtained by seeding rice in a mixture of soil, e.g., Ray silt loam, and peat in wood flats. For purposes of testing the herbicides on younger rice seedlings (infant or Dapog) the rice was usually allowed to grow for 6-15 days before lifting for transplanting. Older (ordinary) rice plants were usually grown for a period of about 2-3 weeks, or as much as about 7 weeks before lifting. Since the period of growth is dependent upon climatic conditions, a better measure of when to transplant the rice seedling is the leaf stage of growth; for infant or Dapog rice the seedling is lifted at the 1.5-2 leaf stage of growth, and for ordinary seedlings at the 2.5-5 leaf stage. The seedlings were then transplanted to the test plots for evaluation of the herbicide for injury against weed species present with the transplanted rice. The herbicides were then applied to the growth medium of the weeds and transplant rice, either preemergent or postemergent with respect to the weeds and postemergent with respect to the transplanted rice. Application times are designated in the tables as "DAT", meaning "days after transplant". Application rates given in the tables refer to the amount of active ingredient used.
(§4) The rice seedlings were grown to the 1.7 leaf stage for infant seedlings and to the 5.5 leaf stage for ordinary seedlings. Two days after puddling the soil in which the seedlings were to be transplanted, both infant and ordinary seedlings were transplanted into plots 8.5 m^2.
(§5) The weed symbol "Obw" represents "other broadleaf weeds" of unspecified identity. Results presented in Table 5 represent the average of 2 replications.

[4] = tested on: Mv (Monochoria vaginalis); assay: Example 5 field test, weed control, JAAPR, Japan; format: in vivo
[5] = tested on: transplanted rice (ordinary and infant seedlings); assay: Example 5 field test, rice injury
Procedure: as §2, §3, §4, §5

[6] = tested on: pigweed, annual morning glory, smartweed, cocklebur, Italian ryegrass, crop rye, sorghum, quack grass and nutsedge; assay: Example 9 soil life bioassay, greenhouse; format: in vivo; conditions: for Soil Longevity: 5 lbs/Ac (5.605 kg/ha), Ray silt loam
Procedure: In this example, additional tests were run to compare the relative soil life of Herbicides A and B under greenhouse conditions.
In the soil life tests, a standardized procedure involving a series of bioassay periods, or cycles, was used. In the procedure, an arbitrary, selected mixture of four grasses, four broadleaf weeds and a sedge were seeded into Ray silt loam soil previously prepared and treated with the herbicide under test and periodically watered by sub-irrigation. After a six-week bioassay period, (i.e., the first cycle), the plants were evaluated visually for herbicidal activity. That soil in which at least 75% of three or more grass and/or broadleaf species or of the sedge alone were controlled at the end of the cycle, was advanced to a second cycle, or six-week bioassay period. The second cycle involved the same procedure as the first cycle, except that additionally, the equivalent of 50 lbs/ac (56.05 Kgs/ha) of nitrogen was mixed into the cover layer of the soil which was reseeded with the mixture of plants mentioned earlier. The plants were evaluated for herbicidal activity at the end of this six-week period and, again, the soil in which at least 75% of the grasses or broadleaf species or of the sedge alone were controlled was advanced to a third cycle. The foregoing procedure was repeated until herbicidal activity fell below that required for initiation of a new cycle.
For purposes of the soil life tests, the following spectrum of plants were used as indicators: pigweed, annual morning glory, smartweed, cocklebur, Italian ryegrass, crop rye, sorghum, quack grass and nutsedge.

[7] = tested on: weeds in ordinary transplanted rice; assay: Example 4 field test, overall weed control; format: in vivo; conditions: for control of all weeds: 5 DAT
Text: Treatments were replicated four times.

[8] = tested on: ordinary transplanted rice; assay: Example 4 field test, rice yield; format: in vivo, rice (Fortuna variety)
Procedure: as §2, §3
In this example comparative field tests were conducted with Herbicides A and B on ordinary transplanted rice at Munoz, Philippines.
Twenty-one (21) day-old ordinary wet bed seedlings of the Fortuna variety were transplanted to field plots and Herbicides A and B applied at 5 DAT and 14 DAT. The field plots were overseeded with barnyardgrass (E. crusgalli) at 2 kgs/ha. Treatments were replicated four times.

[9] = 1.5 kg/ha, 7 DAT, infant seedlings
[10] = 1.5 kg/ha, 7 DAT, ordinary seedlings
[11] = 1.0 kg/ha, 15 DAT, infant seedlings
[12] = 1.0 kg/ha, 15 DAT, ordinary seedlings
[13] = .25 kg/ha, 2 DAT, infant seedlings
[14] = .25 kg/ha, 2 DAT, ordinary seedlings
[15] = .5 kg/ha, 7 DAT, infant seedlings
[16] = .5 kg/ha, 7 DAT, ordinary seedlings

CCCCOCN(C(=O)CCl)c1c(CC)cccc1CC [Herbicide B, n-(butoxymethyl)-2',6'-diethyl-2-chloroacetanilide, reference compound]
% Weed Control (Aj) (Aj (Aneiliema japonica); 5 DAT, 1.0 kg/ha): 79% | % Weed Control (Aj) (Aj (Aneiliema japonica); 5 DAT, 1.5 kg/ha): 76% | % Weed Control (Aj) (Aj (Aneiliema japonica); 5 DAT, 3.0 kg/ha): 85% | % Weed Control (Aj) (Aj (Aneiliema japonica); 10 DAT, 1.0 kg/ha): 58% | % Weed Control (Aj) (Aj (Aneiliema japonica); 10 DAT, 1.5 kg/ha): 77% | % Weed Control (Aj) (Aj (Aneiliema japonica); 10 DAT, 3.0 kg/ha): 78% | % Weed Control (Ci) (Ci (Cyperus iria); 5 DAT, 1.0 kg/ha): 98% | % Weed Control (Ci) (Ci (Cyperus iria); 5 DAT, 1.5 kg/ha): 97% | % Weed Control (Ci) (Ci (Cyperus iria); 5 DAT, 3.0 kg/ha): 99% | % Weed Control (Ci) (Ci (Cyperus iria); 10 DAT, 1.0 kg/ha): 54% | % Weed Control (Ci) (Ci (Cyperus iria); 10 DAT, 1.5 kg/ha): 100% | % Weed Control (Ci) (Ci (Cyperus iria); 10 DAT, 3.0 kg/ha): 93% | % Weed Control (Mv) ([1]; 5 DAT, 1.0 kg/ha): 43% | % Weed Control (Mv) ([1]; 5 DAT, 1.5 kg/ha): 55% | % Weed Control (Mv) ([1]; 5 DAT, 3.0 kg/ha): 70% | % Weed Control (Mv) ([1]; 10 DAT, 1.0 kg/ha): 58% | % Weed Control (Mv) ([1]; 10 DAT, 1.5 kg/ha): 75% | % Weed Control (Mv) ([1]; 10 DAT, 3.0 kg/ha): 69% | % Weed Control (Eo) ([2]; 5 DAT, 1.0 kg/ha): 64% | % Weed Control (Eo) ([2]; 5 DAT, 1.5 kg/ha): 89% | % Weed Control (Eo) ([2]; 5 DAT, 3.0 kg/ha): 92% | % Weed Control (Eo) ([2]; 10 DAT, 1.0 kg/ha): 68% | % Weed Control (Eo) ([2]; 10 DAT, 1.5 kg/ha): 83% | % Weed Control (Eo) ([2]; 10 DAT, 3.0 kg/ha): 77% | % Weed Control, Avg. [3, 9]: 93% | % Weed Control, Avg. [3, 10]: 86% | % Weed Control (Mv) [4, 9]: 66% | % Weed Control (Mv) [4, 10]: 86% | Injury [5, 9]: 10 | Injury [5, 10]: 5 | Soil Longevity [6]: 20 Weeks | control of all weeds [7]: complete control of all weeds | weed control in words ([7]; 14 DAT, 1.0 and 1.5 kgs/ha): nil | weed control ([7]; 14 DAT, 3.0 kgs/ha): 50% | yield vs hand weeded check ([8]; 1.0 kg/ha, 14 DAT): statistically significantly lower than the hand weeded check | Yield (% of H.W. Check) ([8]; 5 DAT, 1.0 kg/ha): 115% | Yield (% of H.W. Check) ([8]; 5 DAT, 1.5 kg/ha): 110% | Yield (% of H.W. Check) ([8]; 5 DAT, 3.0 kg/ha): 100% | Yield (% of H.W. Check) ([8]; 14 DAT, 1.0 kg/ha): 82% | Yield (% of H.W. Check) ([8]; 14 DAT, 1.5 kg/ha): 86% | Yield (% of H.W. Check) ([8]; 14 DAT, 3.0 kg/ha): 94%

CCCCOCN(C(=O)CCl)c1c(C)cccc1C(C)(C)C [Herbicide A, n-(butoxymethyl)-6'-tert-butyl-2-chloro-o-acetotoluidide]
% Weed Control (Aj) (Aj (Aneiliema japonica); 5 DAT, 1.0 kg/ha): 81% | % Weed Control (Aj) (Aj (Aneiliema japonica); 5 DAT, 2.0 kg/ha): 86% | % Weed Control (Aj) (Aj (Aneiliema japonica); 5 DAT, .25 kg/ha): 66% | % Weed Control (Aj) (Aj (Aneiliema japonica); 5 DAT, .5 kg/ha): 84% | % Weed Control (Aj) (Aj (Aneiliema japonica); 10 DAT, 1.0 kg/ha): 79% | % Weed Control (Aj) (Aj (Aneiliema japonica); 10 DAT, 2.0 kg/ha): 88% | % Weed Control (Aj) (Aj (Aneiliema japonica); 10 DAT, .25 kg/ha): 73% | % Weed Control (Aj) (Aj (Aneiliema japonica); 10 DAT, .5 kg/ha): 79% | % Weed Control (Ci) (Ci (Cyperus iria); 5 DAT, 1.0 kg/ha): 100% | % Weed Control (Ci) (Ci (Cyperus iria); 5 DAT, 2.0 kg/ha): 95% | % Weed Control (Ci) (Ci (Cyperus iria); 5 DAT, .25 kg/ha): 85% | % Weed Control (Ci) (Ci (Cyperus iria); 5 DAT, .5 kg/ha): 95% | % Weed Control (Ci) (Ci (Cyperus iria); 10 DAT, 1.0 kg/ha): 97% | % Weed Control (Ci) (Ci (Cyperus iria); 10 DAT, 2.0 kg/ha): 93% | % Weed Control (Ci) (Ci (Cyperus iria); 10 DAT, .25 kg/ha): 74% | % Weed Control (Ci) (Ci (Cyperus iria); 10 DAT, .5 kg/ha): 98% | % Weed Control (Mv) ([1]; 5 DAT, 1.0 kg/ha): 89% | % Weed Control (Mv) ([1]; 5 DAT, 2.0 kg/ha): 82% | % Weed Control (Mv) ([1]; 5 DAT, .25 kg/ha): 72% | % Weed Control (Mv) ([1]; 5 DAT, .5 kg/ha): 80% | % Weed Control (Mv) ([1]; 10 DAT, 1.0 kg/ha): 72% | % Weed Control (Mv) ([1]; 10 DAT, 2.0 kg/ha): 83% | % Weed Control (Mv) ([1]; 10 DAT, .25 kg/ha): 53% | % Weed Control (Mv) ([1]; 10 DAT, .5 kg/ha): 80% | % Weed Control (Eo) ([2]; 5 DAT, 1.0 kg/ha): 91% | % Weed Control (Eo) ([2]; 5 DAT, 2.0 kg/ha): 94% | % Weed Control (Eo) ([2]; 5 DAT, .25 kg/ha): 86% | % Weed Control (Eo) ([2]; 5 DAT, .5 kg/ha): 93% | % Weed Control (Eo) ([2]; 10 DAT, 1.0 kg/ha): 90% | % Weed Control (Eo) ([2]; 10 DAT, 2.0 kg/ha): 92% | % Weed Control (Eo) ([2]; 10 DAT, .25 kg/ha): 82% | % Weed Control (Eo) ([2]; 10 DAT, .5 kg/ha): 88% | weed control vs Herbicide B at 1.5 kg/ha 7 DAT ([3]; 0.25 kg/ha, 2 DAT, Ec, Ann. Cyp, Obw and average, ordinary and infant): equal to or superior | % Weed Control, Avg. [3, 11]: 90% | % Weed Control, Avg. [3, 12]: 90% | % Weed Control, Avg. [3, 13]: 93% | % Weed Control, Avg. [3, 14]: 92% | % Weed Control, Avg. [3, 15]: 81% | % Weed Control, Avg. [3, 16]: 84% | fold more active than Herbicide B ([3]; average weed control, 7 DAT): at least 3 fold | % Weed Control (Mv) [4, 11]: 67% | % Weed Control (Mv) [4, 12]: 62% | % Weed Control (Mv) [4, 13]: 80% | % Weed Control (Mv) [4, 14]: 80% | % Weed Control (Mv) [4, 15]: 60% | % Weed Control (Mv) [4, 16]: 62% | Injury [5, 11]: 0 | Injury [5, 12]: 0 | Injury [5, 13]: 0 | Injury [5, 14]: 0 | Injury [5, 15]: 0 | Injury [5, 16]: 0 | injury to seedlings in words ([5]; ordinary and infant seedlings): Injury to neither ordinary nor infant seedlings occurred | Soil Longevity [6]: 29 Weeks | residual preemergence activity longer than Herbicide B ([6]; equal rates, 5 lbs/Ac): about 50% | control of all weeds [7]: complete control of all weeds | weed control in words ([7]; 14 DAT): dropped off | weed control vs Herbicide B ([7]; 14 DAT): more weed control | Yield (% of H.W. Check) ([8]; in vivo): 129% and 136% and 123% and 101% and 90% and 97% and 100% | rice yield vs hand weeded check ([8]; in vivo): only slightly lower than the hand weeded check | rice yield vs hand weeded control ([8]; in vivo): slightly more than the hand weeded control

— patent publication US3955959A, “Herbicide for use in transplanted rice” (priority 1974, dated 1976)
